Test results as given in paper PMC3855971, “Study of Possible Mechanisms Involved in the Inhibitory Effects of Coumarin Derivatives on Neutrophil Activity” (Oxidative Medicine and Cellular Longevity, 2013).

What was measured:
[1] = system: intracellular ROS production in PMA stimulated human neutrophils; assay: Intracellular chemiluminescence (luminol with superoxide dismutase and catalase) of PMA stimulated neutrophils; format: cell-based; details: for Effect on intracellular ROS production: 0.01–100 μmol/L, PMA stimulated; for EC50: Homo sapiens, PMA 0.05 μmol/L, 37°C, luminol-enhanced CL integrated over 1800 s, mean ± SEM, read-out: EC50, intracellular chemiluminescence (50% inhibition of control CL)
Experimental: (§1) The effect of HHC or HHDC (0.01, 0.1, 1, 10, and 100 μmol/L) on extra- and intracellular ROS production was measured in unstimulated and PMA (0.05 μmol/L) stimulated neutrophils (5 × 10^5/sample) by isoluminol-/luminol-enhanced chemiluminescence (CL). Extracellular CL was determined in the system containing isoluminol (5 μmol/L) and HRP (8 U/mL). Intracellular CL was measured with luminol (5 μmol/L) in the presence of the extracellular scavengers superoxide dismutase (100 U/mL) and catalase (2 000 U/mL). […] Data were based on integral values of CL over 1800 s, (RLU × s; RLU: relative light units).

[2] = system: NADPH oxidase subunit p40^phox; assay: Western blot, phosphorylation of NADPH oxidase subunit p40phox (T154) in PMA stimulated neutrophils; format: cell-based, human; details: 10 and 100 μmol/L, PMA 0.15 μmol/L
Experimental: (§2) Phosphorylation of PKC isoenzymes α, βII, and δ, as well as NADPH oxidase subunit p40^phox, was detected using the method described by Jančinová et al..
(§3) The suspension of isolated neutrophils (100 μL) containing 5 × 10^6 cells was preincubated at 37°C for 60 seconds with different concentrations of HHC or HHDC (10, 100 μmol/L) prior to addition of PMA (0.15 μmol/L). Incubation with PMA (5 min) was stopped by using a solubilisation buffer (20 mmol/L Tris-HCl, 5 mmol/L EDTA, 1% Triton, 10% glycerol, 10 mmol/L NaF, 1 mmol/L sodium orthovanadate, 208 μmol/L AEBF, 0.17 μmol/L aprotinin, 8 μmol/L bestatin, 2.8 μmol/L E-64, 4 μmol/L leupeptin, and pH 7.4). The suspension was sonicated at 4°C for […] and centrifuged at 14 000 ×g at 4°C for 5 min to remove unbroken cells. […] From the two strips taken, one was detected for PKCα, βII (area between 60 and 100 kD) and the second for detection of β-actin (30–60 kD), which represented the internal control. […]
(§4) NADPH oxidase subunit p40^phox and PKC isoenzyme δ were detected in the same blots after their washing and incubation with 10x diluted stripping buffer (Reblot Plus Mild Solution, Millipore, Temecula, CA, USA) for 15 min and washed overnight in diluent buffer (1% bovine serum albumin in Tris buffered saline). […] Autoradiogram bands were quantified using the Image J programme. […]

PKCδ = target: T1, PKCδ (Homo sapiens, UniProt Q05655); assay: Western blot, phosphorylation of PKCδ (Thr505) in PMA stimulated neutrophils; format: cell-based; details: 10 and 100 μmol/L, PMA 0.15 μmol/L
T1 construct: endogenous in cells; host or cells: isolated human neutrophils
T1 sequence (Q05655 whole entry): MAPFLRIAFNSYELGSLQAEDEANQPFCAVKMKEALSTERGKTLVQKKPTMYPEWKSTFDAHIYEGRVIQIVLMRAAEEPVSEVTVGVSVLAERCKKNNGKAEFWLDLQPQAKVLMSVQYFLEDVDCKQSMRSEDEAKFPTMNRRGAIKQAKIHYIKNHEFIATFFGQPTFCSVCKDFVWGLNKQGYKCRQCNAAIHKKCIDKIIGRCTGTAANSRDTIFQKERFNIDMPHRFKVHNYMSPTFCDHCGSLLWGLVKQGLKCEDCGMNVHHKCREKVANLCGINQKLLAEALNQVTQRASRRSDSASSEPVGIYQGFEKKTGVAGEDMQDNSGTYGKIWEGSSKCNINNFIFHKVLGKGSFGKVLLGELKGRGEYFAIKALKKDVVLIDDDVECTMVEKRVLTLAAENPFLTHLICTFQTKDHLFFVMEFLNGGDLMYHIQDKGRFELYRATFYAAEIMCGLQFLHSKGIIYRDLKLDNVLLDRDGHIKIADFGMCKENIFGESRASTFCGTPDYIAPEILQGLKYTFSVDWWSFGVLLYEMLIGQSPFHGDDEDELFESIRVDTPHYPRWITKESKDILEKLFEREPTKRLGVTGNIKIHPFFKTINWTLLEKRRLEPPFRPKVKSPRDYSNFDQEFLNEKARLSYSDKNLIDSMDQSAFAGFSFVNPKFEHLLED
Experimental: as §2, §3, §4

[3] = system: extracellular ROS production in PMA stimulated human neutrophils; assay: Extracellular chemiluminescence (isoluminol/HRP) of PMA stimulated neutrophils; format: cell-based; details: for Effect on extracellular ROS production: 0.01–100 μmol/L, PMA stimulated; for EC50: Homo sapiens, PMA 0.05 μmol/L, 37°C, isoluminol-enhanced CL integrated over 1800 s, mean ± SEM, read-out: EC50, extracellular chemiluminescence (50% inhibition of control CL); for EC50 / IC50: Neutrophil; for IC50: PMA stimulated human neutrophils, read-out: IC50 of control extracellular chemiluminescence
Experimental: as §1

PKC = PKC activity assay (ELISA kit) in cytosol of PMA stimulated neutrophils; format: cell-based, human; details: for PKC activity (percentage of stimulated PMA control): 30 min incubation, PMA 0.15 μmol/L 3 min, mean ± SEM, n = 8
Experimental: PKC activity in the cytosol was detected by the modified method of Varga et al.. Isolated human neutrophils (5 × 10^5/mL) were incubated 30 min with HHC (1, 10, and 100 μmol/L) or HHDC (1, 10, and 100 μmol/L) at 37°C. Neutrophils were then stimulated with PMA (0.15 μmol/L, final concentration) at 37°C for 3 min. The reaction was stopped by addition of 10 vol of ice-cold PBS. After centrifugation (500 ×g, 4°C, 10 min) the cells were resuspended in sample buffer (20 mmol/L TRIS-HCl, 5 mmol/L EDTA, 1% Triton, 10% glycerol, and protease inhibitor cocktail), sonicated on ice, and centrifuged (14 000 ×g, 5 min, 4°C). The cytosolic fractions were transferred to a prechilled 1.5 mL microcentrifuge tube and stored at –70°C. Protein content of cytosol fraction was measured using Bradford Dye Reagent Detection Kit (Bio-Rad, USA). PKC activity was measured with a Nonradioactive Protein Kinase Assay kit (Assay Designs, Ann Arbor, MI, USA), which is based on a solid-phase enzyme-linked immunoabsorbent assay (ELISA), utilising a specific synthetic peptide as substrate for PKC and a polyclonal antibody recognizing the phosphorylated form of the substrate. The assay is developed with tetramethylbenzidine substrate and a colour develops in proportion to PKC phosphotransferase activity. The colour development was stopped with acid stop solution and the intensity of the colour was measured in a microplate reader at 450 nm. The data were expressed as relative kinase activity per 1 mg of protein.

human neutrophils = assay: Cytotoxicity by ATP liberation (luciferin-luciferase chemiluminescence); format: cell-based; details: 1, 10, and 100 μmol/L
Experimental: The cytotoxic effect of HHC and HHDC was evaluated by means of ATP liberation by the luciferin-luciferase chemiluminescence. The neutrophil suspension (30 μL; 30 000 cells/sample) and 20 μL of Tyrode's solution were incubated with 50 μL of HHC or HHDC (1–100 μmol/L) for 15 min at 37°C. Ten microliters of a mixture of luciferin (1.6 μg/sample) and luciferase (45 000 U/sample) was added, and the chemiluminescence was recorded for 60 s. In each experiment, the chemiluminescence of ATP standards (1–500 nmol/L) was measured and the concentrations of ATP in samples were calculated from the calibration curve. The total ATP content was assessed immediately after sonication of neutrophils for 10 s.

[4] = Chemiluminescence assay in cell-free system; format: biochemical; details: luminol, hydrogen peroxide; for EC50: HRP, 37°C, CL over 10 minutes, mean ± SEM, read-out: EC50, cell free chemiluminescence (50% inhibition of control CL)
Experimental: In the cell-free system, luminol, horseradish peroxidase, and hydrogen peroxide were used for chemiluminescence generation. The 200 μL samples consisted of 50 μL aliquots: HRP (2 U/mL), luminol (10 μmol/L), HHC, or HHDC solutions in the concentrations of 1, 10, or 100 μmnol/L. The reaction was initiated by adding hydrogen peroxide at the final concentration of 100 μmol/L. The chemiluminescence responses were measured for 10 minutes at 37°C in a microplate luminometer Immunotech LM-01T (Czech Republic).

[5] = design: method as in PMID 21187835; details: cited from earlier work

Compound | Effect on intracellular ROS production [1] | EC50 ([1]; Neutrophil) [nM] | IC50 ([1]; Neutrophil, PMA stimulated human neutrophils) [nM] | Effect on phosphorylation of p40phox subunit [2] | Effect on phosphorylation of PKCδ (PKCδ) | Effect on extracellular ROS production [3] | EC50 [3] [nM] | IC50 [3] [nM] | PKC activity (percentage of stimulated PMA control) (PKC; 1 μmol/L) [%] | PKC activity (percentage of stimulated PMA control) (PKC; 10 μmol/L) [%] | PKC activity (percentage of stimulated PMA control) (PKC; 100 μmol/L) [%] | Effect on spontaneous ATP liberation (cytotoxicity) (human neutrophils) | EC50 [4] [nM] | Effect on PKC activity (PKC; 1, 10, and 100 μmol/L, PMA stimulated) | Partition coefficient, compared to that of HHC [5] | IC50 ([4]; horseradish peroxidase, unit inferred, read-out: IC50, chemiluminescence generated by cell-free system) [nM]
O=c1oc2cc(O)ccc2cc1-c1ccc(O)cc1 [HHC, 7-Hydroxy-3-(4′-hydroxyphenyl) coumarin] | decreased significantly intracellular ROS production | 5240 ± 570 | 5240 ± 570 | failed to influence it | did not affect phosphorylation of PKCδ | decreased significantly extracellular ROS production | 1040 ± 200 | 1040 ± 200 | 87.7 ± 4.2 | 74.8 ± 6.3 | 46.3 ± 1.8 | did not increase spontaneous ATP liberation | 590 ± 10 |  |  | 
O=C1Oc2cc(O)ccc2CC1c1ccc(O)cc1 (stereo not shown) [HHDC, 7-Hydroxy-3-(4′-hydroxyphenyl)-3,4-dihydrocoumarin] | slightly effective only in the highest concentration tested | > 100000 |  | failed to influence it | did not affect phosphorylation of PKCδ | decreased significantly extracellular ROS production | 1010 ± 130 | 1010 ± 130 |  |  |  | did not increase spontaneous ATP liberation | 2470 ± 40 | did not significantly influence PKC activity | lower values of the partition coefficient | 2470 ± 40
